Key:
[1] = target: Prostaglandin E2 receptor EP2 subtype (Homo sapiens, UniProt P43116); assay: Affinity at human EP2 receptor.
[2] = target: Prostaglandin F2-alpha receptor (Homo sapiens, UniProt P43088); assay: Compound was evaluated for its secondary binding affinity to human FP receptors by using Aequorin luminescence-based functional calcium assay
Prostacyclin receptor = Prostacyclin receptor (Homo sapiens, UniProt P43119); assay: Compound was evaluated for its secondary binding affinity to human IP receptors by using Aequorin luminescence-based functional calcium assay
Prostacyclin receptor, sequence (P43119 whole entry): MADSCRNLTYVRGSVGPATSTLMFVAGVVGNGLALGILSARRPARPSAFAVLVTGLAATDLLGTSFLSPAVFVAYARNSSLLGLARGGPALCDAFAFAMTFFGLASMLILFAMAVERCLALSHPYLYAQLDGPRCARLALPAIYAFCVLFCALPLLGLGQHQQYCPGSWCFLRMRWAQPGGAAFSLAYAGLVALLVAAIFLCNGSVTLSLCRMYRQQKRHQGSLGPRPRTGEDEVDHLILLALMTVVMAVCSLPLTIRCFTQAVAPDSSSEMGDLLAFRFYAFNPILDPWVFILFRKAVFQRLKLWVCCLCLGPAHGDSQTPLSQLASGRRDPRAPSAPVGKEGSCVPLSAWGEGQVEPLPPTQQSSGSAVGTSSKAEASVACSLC

Thromboxane A2 receptor = target: T1, Thromboxane A2 receptor (Homo sapiens, UniProt P21731); assay: Compound was evaluated for its secondary binding affinity to human TP receptors by using Aequorin luminescence-based functional calcium assay
T1 sequence (P21731 whole entry): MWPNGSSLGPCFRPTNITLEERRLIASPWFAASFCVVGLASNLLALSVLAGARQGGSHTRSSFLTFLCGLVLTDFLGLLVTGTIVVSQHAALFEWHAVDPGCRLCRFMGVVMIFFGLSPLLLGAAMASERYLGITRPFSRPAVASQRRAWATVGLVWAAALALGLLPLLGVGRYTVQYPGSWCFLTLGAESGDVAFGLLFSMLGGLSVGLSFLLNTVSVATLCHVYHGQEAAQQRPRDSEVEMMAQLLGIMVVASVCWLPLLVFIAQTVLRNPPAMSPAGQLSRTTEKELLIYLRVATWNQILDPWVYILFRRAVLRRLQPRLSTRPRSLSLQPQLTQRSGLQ

[3] = target: T2, Prostaglandin E2 receptor EP3 subtype (Homo sapiens, UniProt P43115); assay: Affinity at human EP3 receptor.
T2 sequence (P43115 whole entry): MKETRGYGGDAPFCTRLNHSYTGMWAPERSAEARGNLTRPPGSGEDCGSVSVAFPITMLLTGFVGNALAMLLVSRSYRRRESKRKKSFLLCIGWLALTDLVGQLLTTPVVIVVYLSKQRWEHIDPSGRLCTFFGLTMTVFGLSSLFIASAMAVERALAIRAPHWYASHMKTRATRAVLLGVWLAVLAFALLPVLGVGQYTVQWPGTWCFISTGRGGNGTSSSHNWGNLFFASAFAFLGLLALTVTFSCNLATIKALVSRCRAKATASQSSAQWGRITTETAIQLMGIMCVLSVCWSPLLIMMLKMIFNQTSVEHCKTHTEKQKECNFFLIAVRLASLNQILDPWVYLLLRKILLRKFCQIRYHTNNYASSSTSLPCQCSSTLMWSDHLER

[4] = target: T3, Prostaglandin D2 receptor (Homo sapiens, UniProt Q13258); assay: Compound was evaluated for its secondary binding affinity to human DP receptors by using Aequorin luminescence-based functional calcium assay
T3 sequence (Q13258 whole entry): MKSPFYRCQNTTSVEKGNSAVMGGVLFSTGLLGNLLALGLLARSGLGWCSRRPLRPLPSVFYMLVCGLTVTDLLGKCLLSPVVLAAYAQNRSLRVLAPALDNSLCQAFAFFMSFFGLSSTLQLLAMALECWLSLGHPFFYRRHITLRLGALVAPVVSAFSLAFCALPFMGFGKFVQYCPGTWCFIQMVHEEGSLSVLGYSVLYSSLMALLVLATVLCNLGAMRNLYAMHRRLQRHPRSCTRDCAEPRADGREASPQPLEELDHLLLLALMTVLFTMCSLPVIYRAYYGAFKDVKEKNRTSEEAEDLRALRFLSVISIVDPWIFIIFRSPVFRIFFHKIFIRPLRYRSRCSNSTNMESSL

[5] = target: T4, Prostaglandin E2 receptor EP1 subtype (Homo sapiens, UniProt P34995); assay: Affinity at human EP1 receptor.
T4 sequence (P34995 whole entry): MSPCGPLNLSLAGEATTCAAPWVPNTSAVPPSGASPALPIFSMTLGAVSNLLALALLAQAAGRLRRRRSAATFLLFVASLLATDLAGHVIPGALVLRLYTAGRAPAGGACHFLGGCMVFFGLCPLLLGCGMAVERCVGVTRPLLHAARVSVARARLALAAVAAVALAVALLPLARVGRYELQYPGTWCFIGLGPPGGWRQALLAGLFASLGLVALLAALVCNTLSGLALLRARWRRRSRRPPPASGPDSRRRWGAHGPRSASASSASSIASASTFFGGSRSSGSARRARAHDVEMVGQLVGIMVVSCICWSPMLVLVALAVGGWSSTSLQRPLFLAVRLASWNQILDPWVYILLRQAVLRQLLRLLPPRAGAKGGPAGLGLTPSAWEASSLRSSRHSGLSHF

[6] = target: Prostaglandin E2 receptor EP4 subtype (Homo sapiens, UniProt P35408); assay: Affinity at human EP4 receptor.
Prostaglandin E2 receptor EP4 subtype, sequence (P35408 whole entry): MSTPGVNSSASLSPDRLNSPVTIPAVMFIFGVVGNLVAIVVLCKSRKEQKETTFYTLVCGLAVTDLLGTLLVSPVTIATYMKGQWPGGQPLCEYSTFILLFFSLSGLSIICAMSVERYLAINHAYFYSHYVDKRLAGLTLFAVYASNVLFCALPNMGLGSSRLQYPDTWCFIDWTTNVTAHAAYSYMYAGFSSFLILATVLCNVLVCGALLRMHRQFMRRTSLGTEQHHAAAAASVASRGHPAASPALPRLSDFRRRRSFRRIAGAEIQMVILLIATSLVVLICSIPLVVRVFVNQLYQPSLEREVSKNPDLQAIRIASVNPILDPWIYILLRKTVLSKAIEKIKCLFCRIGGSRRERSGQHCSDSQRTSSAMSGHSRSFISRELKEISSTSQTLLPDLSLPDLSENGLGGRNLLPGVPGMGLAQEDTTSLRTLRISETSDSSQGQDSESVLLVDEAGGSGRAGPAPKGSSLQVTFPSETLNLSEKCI

[7] = Compound was evaluated for ratio of Ki's of EP3 and EP1

Prostaglandin F2-alpha receptor, sequence (P43088 whole entry): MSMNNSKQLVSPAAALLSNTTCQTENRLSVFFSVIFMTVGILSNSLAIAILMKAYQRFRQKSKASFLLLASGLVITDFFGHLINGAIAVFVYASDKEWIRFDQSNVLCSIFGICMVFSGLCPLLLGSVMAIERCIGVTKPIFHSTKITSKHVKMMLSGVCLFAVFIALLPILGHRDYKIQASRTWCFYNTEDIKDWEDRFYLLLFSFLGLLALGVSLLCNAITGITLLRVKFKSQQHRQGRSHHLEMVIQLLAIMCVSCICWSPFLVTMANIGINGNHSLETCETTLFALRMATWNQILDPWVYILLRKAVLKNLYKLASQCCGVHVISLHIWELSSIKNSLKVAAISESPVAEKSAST
Prostaglandin E2 receptor EP2 subtype, sequence (P43116 whole entry): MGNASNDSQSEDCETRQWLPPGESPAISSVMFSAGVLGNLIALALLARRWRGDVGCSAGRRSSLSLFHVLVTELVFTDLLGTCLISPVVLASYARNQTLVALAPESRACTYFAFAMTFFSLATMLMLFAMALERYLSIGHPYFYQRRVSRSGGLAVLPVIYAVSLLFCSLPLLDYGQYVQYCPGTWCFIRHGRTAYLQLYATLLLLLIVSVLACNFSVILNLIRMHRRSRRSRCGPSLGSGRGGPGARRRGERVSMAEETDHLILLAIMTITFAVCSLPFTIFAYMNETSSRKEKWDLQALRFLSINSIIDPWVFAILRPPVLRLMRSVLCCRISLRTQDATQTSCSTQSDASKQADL

| SMILES | Ki [1] [µM] | Ki [2] [µM] | Ki (Prostacyclin receptor) [µM] | Ki (Thromboxane A2 receptor) [µM] | Ki [3] [µM] | Ki [4] [µM] | Ki [5] [µM] | Ki [6] [µM] | Ratio [7] |
| --- | --- | --- | --- | --- | --- | --- | --- | --- | --- |
| CN(CCc1ccccc1)C(=O)NS(=O)(=O)c1ccccc1-c1ccc(CN2C(=O)c3ccccc3CCc3ccccc32)cc1 | 23 | 6.2 | 52 | 2.1 | 5 | 2.87 | 0.017 | 1.1 | – |
| O=C(NCCc1ccccc1)NS(=O)(=O)c1ccccc1-c1ccc(CN2C(=O)c3ccccc3CCc3ccccc32)cc1 | > 100 | – | – | – | 51.2 | – | 0.12 | > 100 | – |
| CC(C)(Cc1ccccc1)C(=O)NS(=O)(=O)c1ccccc1-c1ccc(CN2C(=O)c3ccccc3CCc3ccccc32)cc1 | > 100 | 1.3 | 21 | 1.1 | 16 | 4 | 0.018 | 2.4 | – |
| O=C(NCCc1cccs1)NS(=O)(=O)c1ccccc1-c1ccc(CN2Cc3ccccc3CCc3ccccc32)cc1 | – | – | – | – | – | – | 2.8 | – | – |
| CC(C(=O)NS(=O)(=O)c1ccccc1-c1ccc(CN2C(=O)c3ccccc3CCc3ccccc32)cc1)c1ccccc1 (centres undefined) | > 100 | 5.3 | 28.3 | 2.8 | 5 | 2.8 | 0.016 | 20 | – |
| CCCCNC(=O)NS(=O)(=O)c1ccccc1-c1ccc(CN2C(=O)c3ccccc3CCc3ccccc32)cc1 | > 100 | – | – | – | 6 | – | 0.22 | > 100 | – |
| CC(C)(C(=O)NS(=O)(=O)c1ccccc1-c1ccc(CN2C(=O)c3ccccc3CCc3ccccc32)cc1)c1ccccc1 | 23 | 5 | 21 | 3 | 4 | 2.4 | 0.01 | 5 | – |
| O=C(NCCc1cccs1)NS(=O)(=O)c1ccccc1-c1ccc(CN2C(=O)c3ccccc3CCc3ccccc32)cc1 | > 100 | – | – | – | 2.2 | – | 0.1 | > 100 | – |
| O=C(COc1ccccc1)NS(=O)(=O)c1ccccc1-c1ccc(CN2C(=O)c3ccccc3CCc3ccccc32)cc1 | 22 | – | – | – | 4.7 | – | 0.14 | 7 | – |
| O=C(NCCc1cccs1)NS(=O)(=O)c1ccccc1-c1ccc(Cn2c(=O)c3ccccc3c3ccccc32)cc1 | – | – | – | – | – | – | 1.2 | – | – |
| O=C(Cc1ccccc1)NS(=O)(=O)c1ccccc1-c1ccc(CN2C(=O)c3ccccc3CCc3ccccc32)cc1 | 14 | – | – | – | 2.8 | – | 0.057 | > 100 | – |
| CO[C@@](C(=O)NS(=O)(=O)c1ccccc1-c1ccc(CN2C(=O)c3ccccc3CCc3ccccc32)cc1)(c1ccccc1)C(F)(F)F | 13 | – | – | – | 1.6 | – | 0.05 | 3 | – |
| O=C(NCc1ccccc1)NS(=O)(=O)c1ccccc1-c1ccc(CN2C(=O)c3ccccc3CCc3ccccc32)cc1 | > 100 | – | – | – | 13 | – | 0.2 | > 100 | – |
| CO[C@](C(=O)NS(=O)(=O)c1ccccc1-c1ccc(CN2C(=O)c3ccccc3CCc3ccccc32)cc1)(c1ccccc1)C(F)(F)F | 11 | 3.8 | 13 | 1.5 | 1.3 | 2 | 0.012 | 4 | – |
| O=C(NCCCc1ccccc1)NS(=O)(=O)c1ccccc1-c1ccc(CN2C(=O)c3ccccc3CCc3ccccc32)cc1 | > 100 | – | – | – | > 100 | – | 0.4 | > 100 | – |
| O=C(CCc1ccccc1)NS(=O)(=O)c1ccccc1-c1ccc(CN2C(=O)c3ccccc3CCc3ccccc32)cc1 | > 100 | – | – | – | 3.6 | – | 0.047 | 13 | – |
| O=C(Nc1ccccc1)NS(=O)(=O)c1ccccc1-c1ccc(CN2C(=O)c3ccccc3CCc3ccccc32)cc1 | 16 | – | – | – | 4.6 | – | 21 | 19 | – |
| O=C1c2ccccc2CCc2ccccc2N1Cc1ccc(-c2ccccc2S(=O)(=O)N(Cc2ccccc2)C(=O)NCCc2ccccc2)cc1 | > 100 | – | – | – | > 100 | – | 51 | > 100 | – |
| CC(C)(C)NC(=O)NS(=O)(=O)c1ccccc1-c1ccc(CN2C(=O)c3ccccc3CCc3ccccc32)cc1 | > 100 | – | – | – | 1.2 | – | 0.77 | 4.7 | 1.7 |
| O=C(NS(=O)(=O)c1ccccc1-c1ccc(CN2C(=O)c3ccccc3CCc3ccccc32)cc1)OCc1ccccc1 | 11 | – | – | – | 2.4 | – | 0.15 | 6 | – |
| O=C(NCCc1cccs1)NS(=O)(=O)c1ccccc1-c1ccc(CN2C(=O)c3ccccc3Oc3ccccc32)cc1 | – | – | – | – | – | – | 10.8 | – | – |
| CN(C(=O)NCCc1ccccc1)S(=O)(=O)c1ccccc1-c1ccc(CN2C(=O)c3ccccc3CCc3ccccc32)cc1 | > 100 | – | – | – | > 100 | – | 0.36 | > 100 | – |
| C[C@H](NC(=O)NS(=O)(=O)c1ccccc1-c1ccc(CN2C(=O)c3ccccc3CCc3ccccc32)cc1)c1ccccc1 | 21 | – | – | – | 4.7 | – | 0.14 | 6.9 | – |

Reference: ChEMBL document CHEMBL1131980, “New class of biphenylene dibenzazocinones as potent ligands for the human EP1 prostanoid receptor” (Bioorg Med Chem Lett, 1999)
